Measurements from patent publication US20240197852A1, “PSORALEN-I[…] G[…] AND METHODS THEREOF” (Wake Forest University Health Sciences, priority 2021, published 2024).

What was measured:
E. coli strain H10407 [1] = experiment: AMT and UVA crosslinking of E. coli (one round), overnight growth in LB broth; format: cell-based
Method: (§1) Psoralen Inactivation: GC strains were grown overnight on GC agar plates. Overnight growth (between 16 and 18 hours) was resuspended in 5 mls of GCP and OD600 was adjusted to 1.0. Cells were diluted 2:25 in 5 mls GCP supplemented with sodium bicarbonate and Isovitalex and grown at 37 °C in the shaker for 7 hours at which time AMT was added and the cultures were incubated in the shaker for another hour. All bacterial cultures were then moved into 6 well cell culture plates and treated with 1 Joule/cm^2 UV light using an Analytik Jena Crosslinker with UVA light source (365 nm) (model #CL-1000L, Upland, CA). Cultures were returned to tubes and a second dose of AMT was added. Cultures were shaken for 1 hour at 37 °C and then crosslinked again at the same UV dose. Samples were washed in PBS and then plated on GC agar and incubated for two days at 37 °C and 5% CO2 to measure growth as an indication of the presence of residual CFU.
(§2) Early experiments on the effects of different doses of 8-MOP, AMT, and of UV on bacterial cells were done in E. coli strain H10407 due to its relative ease and speed of growth. H10407 was diluted 1:500 in LB and grown for 5 hours at 37 °C in a shaker. Psoralen inactivation was performed as described for GC. Bacterial cells were washed and inoculated into LB broth or plated onto LB agar to measure overnight growth as an indication of the presence of residual CFU.
We then used the psoralen derivative 4-aminomethyl-4,5′, 8-trimethylpsoralen (AMT). Multiple separate cultures of the E. coli strain H10407 were treated with doses of psoralen derivative 4-aminomethyl-4,5′, 8-trimethylpsoralen (AMT) ranging from 0 to 60 μg/ml and treated with 1 Joule/cm^2, 7 Joules/cm^2, or 10 Joules/cm^2 UVA light and then diluted into LB broth and grown overnight. […] Control cultures that received no treatment always grew up overnight as did cultures that only received AMT and no UVA or UVA treatment with no AMT. Heat killed cultures never grew up overnight. […] (See Table 1). Cultures that had no growth were left to grow for 3 more days to make sure that no growth came up later.

GC strain FA1090 [2] = experiment: two rounds of AMT and UVA on GC, plating on GC agar for survivors; format: cell-based, Neisseria gonorrhoeae; settings: thirty 1 ml cultures, approximately 3×10^10 cells; 20 μg/ml AMT and 1 Joule/cm^2 UVA two times
Method: as §1
To get consistent inactivation of GC we treated FA1090 with two rounds of AMT and UVA. Thirty separate 1 ml cultures of FA1090 were given 20 μg/ml AMT and irradiated with 1 Joule/cm^2 UVA two times and plated onto 30 GC agar plates and grown for two days.

GC strain FA1090 [3] = experiment: one round of AMT and UV light crosslinking of GC, plating, percent cell survival; format: cell-based, Neisseria gonorrhoeae; settings: 1 Joule/cm^2
Method: as §1
(§3) Evaluating the use of a GC uvrB mutants: In order to examine the effect of a mutation in the uvrB locus that affects DNA repair GC strains FA1090 and its derivatives 1-81-S2 (uvrB:kan #4 Opa+) and 1-81-S2 (uvrB:kan #9) were tested. uvrB mutants have been used by other labs to reduce the amount of 8-MOP or S-59 needed to inactivate bacterial cells and to therefore leave them with higher metabolic activity (KBMA). FA1090 and mutant strains were treated with varying doses of AMT, grown for one hour at 37 °C, and then irradiated with UVA at 1 Joule/cm^2. The entire culture was washed and plated onto a single plate. Surviving colonies were counted and compared to live cultures to determine percent cell survival. Multiple cultures of each strain were tested at each dosage level. (see Table 3).

E. coli strain H10407 [4] = experiment: two doses of AMT and two rounds of UVA on E. coli, plating for surviving CFU; format: cell-based; settings: for CFUs of treated cells / Percent Survival: 1 Joule/cm^2 two times
Method: as §1, §2
The desire was a method to inactivate the culture consistently with AMT. E. coli strain H10407 was treated with AMT and UVA as before, but then immediately retreated the same culture once again with AMT at the same dosage, allowing the culture to shake for 1 hour, and then crosslinking it a second time and plating the cells to see which cultures would still have surviving cells capable of growth. By plating the cells and comparing to the CFUs of an untreated culture we were able to determine a percentage of surviving cells. Multiple cultures were treated at every drug dose. (See Table 2)
Thirty separate 1 ml cultures of H10407 were grown, treated with AMT at a dose of 40 μg/ml two times, and given 1 Joule/cm^2 of UVA two times and allowed to grow overnight on LB plates. […] LB plates were kept for multiple days to ensure there was no later growth.

[5] = test system: FA1090 uvrB mutant strain 1-81-S2 (uvrB:kan #9); experiment: one round of AMT and UV light crosslinking of GC uvrB mutant, plating, percent cell survival; format: cell-based, Neisseria gonorrhoeae; settings: 1 Joule/cm^2
Method: as §1, §3

[6] = test system: FA1090 uvrB mutant strain 1-81-S2 (uvrB:kan #4 Opa+); experiment: as above; format: cell-based, Neisseria gonorrhoeae; settings: 1 Joule/cm^2
Method: as §1, §3

E. coli strain H10407 [7] = experiment: 8-MOP and UVA crosslinking of E. coli, overnight growth in LB broth; format: cell-based; settings: 50, 60, 70, or 80 μg/ml 8-MOP; 1 Joule/cm^2 or 7 Joules/cm^2 UVA
Method: as §2
Inactivation of E. coli with AMT+UVA light: Other labs had previously reported the use of the psoralen derivatives 8-MOP or S-59/psoralen and UVA light to inactivate bacterial cultures containing DNA repair mutations. In order to determine if a bacterial culture not containing a DNA repair mutation with 8-MOP and UVA crosslinking could be inactivated, E. coli strain H10407 was used. Multiple separate cultures of this strain were treated with 50, 60, 70, or 80 μg/ml 8-MOP and treated with 1 Joule/cm^2 or 7 Joules/cm^2 UVA light and then diluted into LB broth and grown overnight. If even one cell in each culture survived the treatment with 8-MOP and UVA, it was expected to see growth in the overnight culture. Control cultures that received UVA but no 8-MOP, 8-MOP but no UVA, and no UVA or 8-MOP were also included. Heat killed cultures were diluted and grown overnight as a negative control.

Cc1oc2c(C)c3oc(=O)cc(C)c3cc2c1CN [AMT, 4-aminomethyl-4,5′, 8-trimethylpsoralen] was tested, and the “Percentage of cultures inactivated” value (E. coli strain H10407 [1]; AMT 20 ug/ml, 1 Joule/cm^2) was 0%, the “number of cultures inactivated (no overnight growth) / total cultures treated” value (E. coli strain H10407 [1]; AMT 20 ug/ml, 1 Joule/cm^2) was 0/5 and the “Percentage of cultures inactivated” value (E. coli strain H10407 [1]; AMT 20 ug/ml, 7 Joules/cm^2) was 67%. The “number of cultures inactivated (no overnight growth) / total cultures treated” value (E. coli strain H10407 [1]; AMT 20 ug/ml, 7 Joules/cm^2) was 2/3, the “Percentage of cultures inactivated” value (E. coli strain H10407 [1]; AMT 30 ug/ml, 1 Joule/cm^2) was 0% and the “number of cultures inactivated (no overnight growth) / total cultures treated” value (E. coli strain H10407 [1]; AMT 30 ug/ml, 1 Joule/cm^2) was 0/5. The “Percentage of cultures inactivated” value (E. coli strain H10407 [1]; AMT 30 ug/ml, 7 Joules/cm^2) was 33%, the “number of cultures inactivated (no overnight growth) / total cultures treated” value (E. coli strain H10407 [1]; AMT 30 ug/ml, 7 Joules/cm^2) was 1/3 and the “Percentage of cultures inactivated” value (E. coli strain H10407 [1]; AMT 40 ug/ml, 1 Joule/cm^2) was 60%. For the same compound, the “number of cultures inactivated (no overnight growth) / total cultures treated” value (E. coli strain H10407 [1]; AMT 40 ug/ml, 1 Joule/cm^2) was 3/5, the “Percentage of cultures inactivated” value (E. coli strain H10407 [1]; AMT 50 ug/ml, 1 Joule/cm^2) was 82% and the “number of cultures inactivated (no overnight growth) / total cultures treated” value (E. coli strain H10407 [1]; AMT 50 ug/ml, 1 Joule/cm^2) was 9/11. For the same compound, the “Percentage of cultures inactivated” value (E. coli strain H10407 [1]; AMT 50 ug/ml, 7 Joules/cm^2) was 78%, the “number of cultures inactivated (no overnight growth) / total cultures treated” value (E. coli strain H10407 [1]; AMT 50 ug/ml, 7 Joules/cm^2) was 7/9 and the “Percentage of cultures inactivated” value (E. coli strain H10407 [1]; AMT 50 ug/ml, 10 Joules/cm^2) was 80%. The “number of cultures inactivated (no overnight growth) / total cultures treated” value (E. coli strain H10407 [1]; AMT 50 ug/ml, 10 Joules/cm^2) was 12/15, the “Percentage of cultures inactivated” value (E. coli strain H10407 [1]; AMT 60 ug/ml, 1 Joule/cm^2) was 80% and the “number of cultures inactivated (no overnight growth) / total cultures treated” value (E. coli strain H10407 [1]; AMT 60 ug/ml, 1 Joule/cm^2) was 4/5. For the same compound, the “inactivation of cultures (overnight growth)” value (E. coli strain H10407 [1]; AMT up to 60 μg/ml, 1, 7 or 10 Joules/cm^2 UVA, one round) was “sometimes completely inactivated”, the “survivors after plating on GC agar, two days” value (GC strain FA1090 [2]) was “No survivors were detected” and the “Percent Cell Survival” value (GC strain FA1090 [3]; AMT 2 ug/ml) was 7.85 × 10^−6%. The “Percent Cell Survival” value (GC strain FA1090 [3]; AMT 5 ug/ml) was 1.23 × 10^−6%, the “Percent Cell Survival” value (GC strain FA1090 [3]; AMT 7 ug/ml) was 0% and the “Percent Cell Survival” value (GC strain FA1090 [3]; AMT 10 ug/ml) was 0%. For the same compound, the “Percent Cell Survival” value (GC strain FA1090 [3]; AMT 30 ug/ml) was 0%, the “Percent Cell Survival” value (GC strain FA1090 [3]; AMT 50 ug/ml) was 0% and the “Percent Cell Survival” value (GC strain FA1090 [3]; AMT 70 ug/ml) was 2.56 × 10^−7%. For the same compound, the “Percent Cell Survival” value (GC strain FA1090 [3]; AMT 100 ug/ml) was 0%, the “CFUs of treated cells” value (E. coli strain H10407 [4]; AMT 10 ug/ml two doses) was 79 and the “Percent Survival” value (E. coli strain H10407 [4]; AMT 10 ug/ml two doses) was 2.6 × 10^−6%. For the same compound, the “CFUs of treated cells” value (E. coli strain H10407 [4]; AMT 30 ug/ml two doses) was 2, the “Percent Survival” value (E. coli strain H10407 [4]; AMT 30 ug/ml two doses) was 5 × 10^−8% and the “CFUs of treated cells” value (E. coli strain H10407 [4]; AMT 35 ug/ml two doses) was 55. For the same compound, the “Percent Survival” value (E. coli strain H10407 [4]; AMT 35 ug/ml two doses) was 6.1 × 10^−7%, the “CFUs of treated cells” value (E. coli strain H10407 [4]; AMT 40 ug/ml two doses) was 0 and the “Percent Survival” value (E. coli strain H10407 [4]; AMT 40 ug/ml two doses) was 0%. For the same compound, the “surviving cells capable of growth” value (E. coli strain H10407 [4]; thirty 1 ml cultures, approximately 3.7×10^10 cells, 40 μg/ml AMT and 1 Joule/cm^2 UV two times) was “no cells still capable of growth”, the “Percent Cell Survival” value ([5]; AMT 2 ug/ml) was 7.23 × 10^−7% and the “Percent Cell Survival” value ([5]; AMT 5 ug/ml) was 4.0 × 10^−7%. For the same compound, the “Percent Cell Survival” value ([5]; AMT 7 ug/ml) was 6.3 × 10^−8%, the “Percent Cell Survival” value ([5]; AMT 10 ug/ml) was 0% and the “Percent Cell Survival” value ([5]; AMT 30 ug/ml) was 0%. For the same compound, the “Percent Cell Survival” value ([5]; AMT 50 ug/ml) was 0%, the “Percent Cell Survival” value ([5]; AMT 70 ug/ml) was 0% and the “Percent Cell Survival” value ([5]; AMT 100 ug/ml) was 0%. For the same compound, the “Percent Cell Survival” value ([6]; AMT 2 ug/ml) was 5.56 × 10^−8%, the “Percent Cell Survival” value ([6]; AMT 5 ug/ml) was 0% and the “Percent Cell Survival” value ([6]; AMT 7 ug/ml) was 0%. The “Percent Cell Survival” value ([6]; AMT 10 ug/ml) was 0%, the “Percent Cell Survival” value ([6]; AMT 30 ug/ml) was 0% and the “Percent Cell Survival” value ([6]; AMT 50 ug/ml) was 0%. The “Percent Cell Survival” value ([6]; AMT 70 ug/ml) was 1.11 × 10^−6% and the “Percent Cell Survival” value ([6]; AMT 100 ug/ml) was 0%.

For COc1c2occc2cc2ccc(=O)oc12 [8-MOP, 8-methoxypsoralen], the “inactivation of cultures (overnight growth)” value (E. coli strain H10407 [7]) was “not inactivated”.
